Measurements from article PMC9606955, “In Vitro Activity of Essential Oils Distilled from Colombian Plants against Candida auris and Other Candida Species with Different Antifungal Susceptibility Profiles” (Molecules, 2022).
≈ marks a conversion by molar mass, not a printed value.

Key:
Assay in all cases: MIC, CLSI M27 broth microdilution
[1] = test system: C. albicans ATCC 10231; type: cell-based, Candida albicans; conditions: antifungal drugs; for MIC: Candida albicans, ATCC10231, geometric mean
Source text: (§1) The fungal strains used in this study were C. albicans ATCC 10231, C. albicans ATCC 64550, C. parapsilosis ATCC 22019, C. tropicalis ATCC 750, C. tropicalis ATCC 200956 (resistant to azoles and AMB), C. glabrata LMDM 34 (resistant to echinocandins), C. metapsilosis MUM 15.12, C. orthopsilosis MUM 17.13, C. lusitaniae MUM 17.08, C. krusei ATCC 6258 (Issatchenkia orientalis ATCC 6258), and C. auris CDC B11903. Additionally, nine clinical isolates were included: C. parapsilosis Synlab 406 (FLC-resistant) and eight C. auris isolates identified by MALDI-TOF MS (Bruker Daltonics, Bremen, Germany) according to Zhao et al.. These yeasts were cultured on Sabouraud Dextrose Agar (SDA; Sigma-Aldrich, St. Louis, MO, USA) for 24 h at 35 °C.
(§2) Antifungal susceptibility testing was performed according to Clinical and Laboratory Standards Institute M27, 4th Edition (CLSI standard M27, 4th Edition). Some modifications were applied for evaluation of the antifungal activity of EOs and terpenes. Initially, a screening was carried out to determine the antifungal activity of the EOs and of commercial terpenes. Stock concentrations of EOs and terpenes were prepared at 512 µg/mL and an inoculum of 2.5 × 10^3 CFU/mL of each yeast was prepared in RPMI 1640-MOPS (Sigma- Aldrich St. Louis, MO, USA). Thereafter, 100 µL of each stock solution of EOs or terpenes was dispensed in 96-well microdilution plates (Corning®, Costar®, NY, USA) and 100 µL of each yeast inoculum was added. […] Microdilution plates were incubated at 35 °C and, after 24 h, the presence or absence of growth was visually checked using a manual mirror viewer and then compared with the amount of growth in the control (no EO or terpene). Compounds able to inhibit yeast growth were tested to determine the minimal inhibitory concentration (MIC) as follows: 100 µL of 10 two-fold dilutions of the EOs or commercial terpenes was dispensed in 96-well microplates and the yeast inoculum was added. Final concentrations of the EOs or terpenes ranged from 0.5 µg/mL to 256 µg/mL. Microdilution plates were incubated at 35 °C for 24 h. MICs were visually determined at the lowest concentration that produced visual inhibition compared to the growth control. The assays were performed at least three times in duplicate on different days. The results were expressed as geometric means (GM) and ranges. As an antifungal susceptibility testing control, the activity of ITC and AMB against the reference strains C. krusei ATCC 6258 and C. parapsilosis ATCC 22019 was evaluated in all experiments following the CLSI standard M27, 4th Edition. It was mandatory that the MIC values remained in the accepted range.

[2] = test system: C. albicans ATCC 64550; type: cell-based, Candida albicans; conditions: antifungal drugs; for MIC: Candida albicans, ATCC64550, geometric mean
Source text: as §1, §2

[3] = test system: C. lusitaniae MUM 17.08; type: cell-based, Candida lusitaniae; conditions: C. lusitaniae MUM 17.08, antifungal drugs; for MIC: Clavispora lusitaniae, MUM17.08, geometric mean, read-out: MIC GM
In short: (§3)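 CLSI M27 (4th ed.) broth microdilution, modified for essential oils and terpenes: yeasts grown on SDA 24 h at 35 °C, inoculum 2.5 × 10^3 CFU/mL in RPMI 1640-MOPS, two-fold dilutions at 0.5–256 µg/mL final. Visual MIC after 24 h at 35 °C; ≥3 runs in duplicate, reported as geometric mean and range.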

[4] = test system: C. parapsilosis ATCC 22019; type: cell-based, Candida parapsilosis; conditions: antifungal drugs; for MIC: Lodderomyces parapsilosis, ATCC22019, geometric mean
In short: as §3

[5] = test system: C. parapsilosis Synlab 406; type: cell-based, Candida parapsilosis; conditions: C. parapsilosis Synlab 406; for MIC Range / MIC: antifungal drugs; for MIC: Lodderomyces parapsilosis, SYNLAB406, geometric mean, read-out: MIC GM
In short: as §3

[6] = test system: C. tropicalis ATCC 200956; type: cell-based, Candida tropicalis; conditions: C. tropicalis ATCC 200956; for MIC Range / MIC: antifungal drugs; for MIC: Candida tropicalis, ATCC200956, geometric mean, read-out: MIC GM
In short: as §3

[7] = test system: C. tropicalis ATCC 750; type: cell-based, Candida tropicalis; conditions: antifungal drugs; for MIC: Candida tropicalis, ATCC750, geometric mean
In short: as §3

[8] = test system: C. orthopsilosis MUM 17.13; type: cell-based, Candida orthopsilosis; conditions: C. orthopsilosis MUM 17.13, antifungal drugs; for MIC: Lodderomyces orthopsilosis, MUM17.13, geometric mean, read-out: MIC GM
In short: as §3

[9] = test system: C. auris Ca 1; type: cell-based, Candida auris; conditions: C. auris Ca 1, antifungal drugs; for MIC: Candidozyma auris, CA1, geometric mean, read-out: MIC GM
In short: as §3

[10] = test system: C. auris Ca 9; type: cell-based, Candida auris; conditions: C. auris Ca 9, antifungal drugs; for MIC: Candidozyma auris, CA9, geometric mean, read-out: MIC GM
In short: as §3

[11] = test system: C. auris Ca 10; type: cell-based, Candida auris; conditions: antifungal drugs; for MIC: Candidozyma auris, CA10, geometric mean
In short: as §3

[12] = test system: C. auris Ca 45; type: cell-based, Candida auris; conditions: C. auris Ca 45; for MIC Range / MIC: antifungal drugs; for MIC: Candidozyma auris, CA45, geometric mean, read-out: MIC GM
In short: as §3

[13] = test system: C. auris Ca 32; type: cell-based, Candida auris; conditions: C. auris Ca 32, antifungal drugs; for MIC: Candidozyma auris, CA32, geometric mean, read-out: MIC GM
In short: as §3

[14] = test system: C. auris CDC B11903; type: cell-based, Candida auris; conditions: C. auris CDCB11903, antifungal drugs; for MIC: Candidozyma auris, geometric mean, read-out: MIC GM
In short: as §3

[15] = test system: C. auris Ca 41; type: cell-based, Candida auris; conditions: C. auris Ca 41; for MIC Range / MIC: antifungal drugs; for MIC: Candidozyma auris, CA41, geometric mean, read-out: MIC GM
In short: as §3

[16] = test system: C. auris Ca 46; type: cell-based, Candida auris; conditions: C. auris Ca 46; for MIC Range / MIC: antifungal drugs; for MIC: Candidozyma auris, CA46, geometric mean, read-out: MIC GM
In short: as §3

[17] = test system: C. auris Ca 17; type: cell-based, Candida auris; conditions: C. auris Ca 17; for MIC Range / MIC: antifungal drugs; for MIC: Candidozyma auris, CA17, geometric mean, read-out: MIC GM
In short: as §3

[18] = test system: C. metapsilosis MUM 15.12; type: cell-based, Candida metapsilosis; conditions: C. metapsilosis MUM 15.12, antifungal drugs; for MIC: Lodderomyces metapsilosis, MUM15.12, geometric mean, read-out: MIC GM
In short: as §3

[19] = test system: C. glabrata LMDM 34; type: cell-based, Candida glabrata; conditions: antifungal drugs; for MIC: Nakaseomyces glabratus, LMDM34, geometric mean
Source text: as §1, §2

OC(Cn1cncn1)(Cn1cncn1)c1ccc(F)cc1F [FLC, fluconazole]
MIC [1]: 4 mg/L (≈ 13.1 µM)
MIC Range [1]: 4 mg/L (≈ 13.1 µM)
MIC [2]: 5.6 mg/L (≈ 18.3 µM)
MIC Range [2]: 4 to 8 mg/L
MIC Range [3]: 0.5 mg/L (≈ 1.63 µM)
MIC [3]: 0.5 mg/L (≈ 1.63 µM)
MIC [4]: 0.7 mg/L (≈ 2.29 µM)
MIC Range [4]: 0.5 to 1 mg/L
MIC Range [5]: 8 to 16 mg/L
susceptibility category ([5]; resistance confirmed): resistance
MIC [5]: 11.3 mg/L (≈ 36.9 µM)
MIC Range [6]: >64 mg/L
MIC [6]: > 64 mg/L
MIC [7]: 1.4 mg/L (≈ 4.57 µM)
MIC Range [7]: 1 to 2 mg/L
MIC Range [8]: 1 mg/L (≈ 3.27 µM)
MIC [8]: 1 mg/L (≈ 3.27 µM)
MIC Range [9]: 4 mg/L (≈ 13.1 µM)
MIC [9]: 4 mg/L (≈ 13.1 µM)
MIC Range [10]: 4 mg/L (≈ 13.1 µM)
MIC [10]: 4 mg/L (≈ 13.1 µM)
MIC [11]: 4 mg/L (≈ 13.1 µM)
MIC Range [11]: 4 mg/L (≈ 13.1 µM)
MIC Range [12]: 2 mg/L (≈ 6.53 µM)
MIC [12]: 2 mg/L (≈ 6.53 µM)
MIC Range [13]: 8 to 16 mg/L
MIC [13]: 11.3 mg/L (≈ 36.9 µM)
MIC Range [14]: 1 to 2 mg/L
MIC [14]: 1.4 mg/L (≈ 4.57 µM)
MIC Range [15]: 2 mg/L (≈ 6.53 µM)
MIC [15]: 2 mg/L (≈ 6.53 µM)
MIC Range [16]: 2 to 4 mg/L
MIC [16]: 2.8 mg/L (≈ 9.14 µM)
susceptibility category ([17]; CDC breakpoints): FLC-resistant
MIC Range [17]: 32 mg/L (≈ 104 µM)
MIC [17]: 32 mg/L (≈ 104 µM)
MIC Range [18]: 1 to 2 mg/L
MIC [18]: 1.4 mg/L (≈ 4.57 µM)
MIC [19]: 2.8 mg/L (≈ 9.14 µM)
MIC Range [19]: 2 to 4 mg/L

C[C@@H]1[C@H](O)[C@@H](C)/C=C/C=C/C=C/C=C/C=C/C=C/C=C/[C@H](O[C@@H]2O[C@H](C)[C@@H](O)[C@H](N)[C@@H]2O)C[C@@H]2O[C@](O)(C[C@@H](O)C[C@@H](O)[C@H](O)CC[C@@H](O)C[C@@H](O)CC(=O)O[C@H]1C)C[C@H](O)[C@H]2C(=O)O [AMB, amphotericin B]
MIC [1]: 0.04 mg/L (≈ 0.0433 µM)
MIC Range [1]: 0.03 to 0.12 mg/L
MIC [2]: 0.04 mg/L (≈ 0.0433 µM)
MIC Range [2]: 0.03 to 0.12 mg/L
MIC Range [3]: 0.03 mg/L (≈ 0.0325 µM)
MIC [3]: 0.03 mg/L (≈ 0.0325 µM)
MIC [4]: 0.06 mg/L (≈ 0.0649 µM)
MIC Range [4]: 0.06 mg/L (≈ 0.0649 µM)
MIC Range [5]: 0.06 to 0.25 mg/L
MIC [5]: 0.15 mg/L (≈ 0.162 µM)
MIC Range [6]: 1 to 2 mg/L
susceptibility category ([6]; resistance confirmed): resistance
MIC [6]: 1.41 mg/L (≈ 1.53 µM)
MIC [7]: 0.11 mg/L (≈ 0.119 µM)
MIC Range [7]: 0.06 to 0.12 mg/L
MIC Range [8]: <0.03 mg/L
MIC [8]: < 0.03 mg/L
MIC Range [9]: 0.12 to 0.25 mg/L
MIC [9]: 0.2 mg/L (≈ 0.216 µM)
MIC Range [10]: 0.12 to 0.5 mg/L
MIC [10]: 0.25 mg/L (≈ 0.271 µM)
MIC [11]: 0.18 mg/L (≈ 0.195 µM)
MIC Range [11]: 0.12 to 0.25 mg/L
susceptibility category ([12]; CDC breakpoints): AMB-resistant
MIC Range [12]: 1 to 2 mg/L
MIC [12]: 1.41 mg/L (≈ 1.53 µM)
MIC Range [13]: 0.12 to 0.5 mg/L
MIC [13]: 0.19 mg/L (≈ 0.206 µM)
MIC Range [14]: 0.06 to 0.12 mg/L
MIC [14]: 0.07 mg/L (≈ 0.0758 µM)
susceptibility category ([15]; CDC breakpoints): AMB-resistant
MIC Range [15]: 1 mg/L (≈ 1.08 µM)
MIC [15]: 1 mg/L (≈ 1.08 µM)
susceptibility category ([16]; CDC breakpoints): AMB-resistant
MIC Range [16]: 1 to 2 mg/L
MIC [16]: 1.4 mg/L (≈ 1.52 µM)
MIC Range [17]: 0.06 to 0.25 mg/L
MIC [17]: 0.15 mg/L (≈ 0.162 µM)
MIC Range [18]: <0.03 mg/L
MIC [18]: < 0.03 mg/L
MIC [19]: 0.06 mg/L (≈ 0.0649 µM)
MIC Range [19]: 0.06 to 0.12 mg/L
